Measured values as given in patent publication US10214681B2, “Method for treating a subterranean formation” (Schlumberger Technology Corporation, priority 2015, dated 2019).
One block for each molecule: values may come before it.

Assays:
Type in all cases: biochemical
[1] = tested on: cellulase; assay: Viscosity of guar fluid with cellulase and deactivator at 22° C. (Examples 3-7); conditions: 200 ppm cellulase; for degradation of the guar: 22° C. (FIG. 4)
Protocol: (§1) The following example formulations were prepared by adding a desired amount of cellulase and then a deactivator to water. The polymer was hydrated in the mixed water with a Waring blender mixing at 1000-3000 rpm for 15 mins.
The viscosities of Formulations 1-6 were measured immediately after mixing. To measure the viscosity of the solutions, 12 mL samples were loaded into a rheometer cup in a Bohlin rheometer with a C25 configuration.
The viscosities of Formulations 1-4 were measured immediately after mixing. To measure the viscosity of the solutions, 12 mL samples were loaded into a rheometer cup in a Bohlin rheometer with a C25 configuration.
The viscosities of Formulations 1-5 were measured immediately after mixing. To measure the viscosity of the solutions, 12 mL samples were loaded into a rheometer cup in a Bohlin rheometer with a C25 configuration.

[2] = tested on: bacterial and/or fungal cells; assay: Viscosity of guar in water containing 11,000,000 CFU bacterial and/or fungal cells (Example 2); conditions: 0.4 g/L deactivator, 3.6 g/L guar
Protocol: Formulation 2 was prepared by adding 3.6 g/L guar to water containing 11,000,000 CFU bacterial and/or fungal cells.
Formulation 3 was prepared by adding 0.4 g/L of tannic acid to Formulation 2.
(§2) The viscosities of Formulations 1-3 were measured immediately after mixing. To measure the viscosity of the solutions, 12 mL samples were loaded into a rheometer cup in a Bohlin rheometer with a C25 configuration.

[3] = tested on: cellulase; assay: Viscosity of xanthan fluid with cellulase and deactivator at 22° C. (Example 8); conditions: 0.6 g/L deactivator, 200 ppm cellulase, 3.6 g/L xanthan
Protocol: as §1
Formulation 3 was prepared by adding 200 ppm cellulase, 0.6 g/L of 1,5-dihydroxynaphthalene, and 3.6 g/L xanthan to tap water.
as §2

[4] = tested on: cellulase; assay: Viscosity of carboxymethyl cellulose fluid with cellulase and deactivator at 22° C. (Example 9); conditions: 0.6 g/L deactivator, 200 ppm cellulase, 3.6 g/L carboxymethyl cellulose
Protocol: as §1
Formulation 3 was prepared by adding 200 ppm cellulase, 0.6 g/L of 1,5-dihydroxynaphthalene, and 3.6 g/L carboxymethyl cellulose to tap water.
as §2

[5] = tested on: cellulase; assay: Viscosity of guar solution with cellulase and deactivator over time at 50° C. and 80° C. (Example 1); conditions: 200 ppm cellulase, 3.6 g/L guar
Protocol: as §1
Formulation 3 was prepared by adding 200 ppm cellulase and 0.6 g/L of 1,5-dihydroxynaphthalene from Sigma Aldrich to tap water. Then 3.6 g/L guar was added to the fluid.
Formulation 4 was prepared by adding 200 ppm cellulase and 0.24 g/L of 1,5-dihydroxynaphthalene from Sigma Aldrich to tap water. Then 3.6 g/L guar was added to the fluid.
To measure the viscosity of the solutions, 12 mL samples were loaded into a rheometer cup in a Bohlin rheometer with a C25 configuration. The rheology tests were performed at a shear rate of 10 s^−1 and temperatures of 50° C. and 80° C., the results of which are shown in FIG. 1 and FIG. 2, respectively.

SMILES: Oc1cccc2cccc(O)c12 [1,8-dihydroxynaphthalene]
degradation of the biomaterial ([1]; 0.12 g/L deactivator, 3.6 g/L guar, 22° C. (FIG. 6)): impeded
viscosity compared with Formulation 1 (no cellulase) ([1]; 0.12 g/L deactivator, 3.6 g/L guar, shear rate 1, 10, 100 s^-1, 22° C. (FIG. 6)): similar

SMILES: Oc1cccc2c(O)cccc12 [1,5-dihydroxynaphthalene]
degradation of the biomaterial ([3]; 22° C. (FIG. 9)): impeded
viscosity compared with Formulation 1 (no cellulase) ([3]; shear rate 1, 10, 100 s^-1, 22° C. (FIG. 9)): similar
degradation of the biomaterial ([1]; 0.6 g/L deactivator, 3.6 g/L guar, 22° C. (FIG. 6)): impeded
viscosity compared with Formulation 1 (no cellulase) ([1]; 0.6 g/L deactivator, 3.6 g/L guar, shear rate 1, 10, 100 s^-1, 22° C. (FIG. 6)): similar
degradation of the biomaterial ([4]; 22° C. (FIG. 10)): impeded
viscosity compared with Formulation 1 (no cellulase) ([4]; shear rate 1, 10, 100 s^-1, 22° C. (FIG. 10)): similar
degradation rate of the cellulase enzymes ([5]; 0.6 g/L deactivator, tap water, shear rate 10 s^-1, 50° C. and 80° C. (FIG. 1, 2)): reduced
dependence of viscosity reduction on deactivator concentration ([5]; 0.6 g/L vs 0.24 g/L deactivator, 50° C. (FIG. 1)): the slower the viscosity was reduced
viscosity compared with the formulation without deactivator ([5]; 50° C., shear rate 10 s^-1 (FIG. 1)): higher
viscosity compared with the formulation without deactivator ([5]; 80° C., shear rate 10 s^-1 (FIG. 2)): higher

SMILES: Oc1ccc2c(c1)OCO2 [sesamol]
degradation of the biomaterial ([1]; 0.36 g/L deactivator, 3.6 g/L guar, 22° C. (FIG. 7)): impeded
viscosity compared with Formulation 1 (no cellulase) ([1]; 0.36 g/L deactivator, 3.6 g/L guar, shear rate 1, 10, 100 s^-1, 22° C. (FIG. 7)): similar

SMILES: O=C(O)c1cc(O)c(O)c(O)c1 [gallic acid]
degradation of the guar ([1]; 8 mL/L gallic acid, 3.6 g/L guar): impeded
viscosity compared with Formulation 1 (no cellulase) ([1]; 8 mL/L gallic acid, 3.6 g/L guar, shear rate 1, 10, 100 s^-1, 22° C. (FIG. 4)): similar

SMILES: COc1cccc(OC)c1OC [1,2,3-trimethoxybenzene]
degradation of the biomaterial ([1]; 0.6 g/L 1,2,3-trimethoxybenzene, 3.6 g/L guar, 22° C. (FIG. 8)): impeded
viscosity compared with Formulation 1 (no cellulase) ([1]; 0.6 g/L 1,2,3-trimethoxybenzene, 3.6 g/L guar, shear rate 1, 10, 100 s^-1, 22° C. (FIG. 8)): similar

SMILES: COc1cc(OC)cc(OC)c1 [1,3,5-trimethoxybenzene]
degradation of the biomaterial ([1]; 0.6 g/L 1,3,5-trimethoxybenzene, 3.6 g/L guar, 22° C. (FIG. 8)): impeded
viscosity compared with Formulation 1 (no cellulase) ([1]; 0.6 g/L 1,3,5-trimethoxybenzene, 3.6 g/L guar, shear rate 1, 10, 100 s^-1, 22° C. (FIG. 8)): similar

SMILES: COc1cc(C(=O)O)ccc1O [vanillic acid]
degradation of the guar ([1]; 0.96 g/L deactivator, 3.6 g/L guar): impeded
viscosity compared with Formulation 1 (no cellulase) ([1]; 0.96 g/L deactivator, 3.6 g/L guar, shear rate 1, 10, 100 s^-1, 22° C. (FIG. 4)): similar

Further lines, with some results ahead:

degradation of the biomaterial ([1]; 0.36 g/L deactivator, 3.6 g/L guar, 22° C. (FIG. 6)): impeded
viscosity compared with Formulation 1 (no cellulase) ([1]; 0.36 g/L deactivator, 3.6 g/L guar, shear rate 1, 10, 100 s^-1, 22° C. (FIG. 6)): similar
SMILES: Oc1cc2ccccc2cc1O [2,3-dihydroxynaphthalene]

degradation of the biomaterial by the cellulase enzymes ([1]; 0.4 g/L deactivator, 3.6 g/L guar, 22° C. (FIG. 5)): impeded
viscosity compared with Formulation 1 (no cellulase) ([1]; 0.4 g/L deactivator, 3.6 g/L guar, shear rate 1, 10, 100 s^-1, 22° C. (FIG. 5)): similar
SMILES: O=C(OC[C@H]1O[C@@H](OC(=O)c2cc(O)c(O)c(OC(=O)c3cc(O)c(O)c(O)c3)c2)[C@H](OC(=O)c2cc(O)c(O)c(OC(=O)c3cc(O)c(O)c(O)c3)c2)[C@@H](OC(=O)c2cc(O)c(O)c(OC(=O)c3cc(O)c(O)c(O)c3)c2)[C@@H]1OC(=O)c1cc(O)c(O)c(OC(=O)c2cc(O)c(O)c(O)c2)c1)c1cc(O)c(O)c(OC(=O)c2cc(O)c(O)c(O)c2)c1 [tannic acid]
degradation of the guar biomaterial by the enzyme ([2]; water with 11,000,000 CFU bacterial and/or fungal cells, 22° C. (FIG. 3)): inhibited
viscosity compared with Formulation 1 (guar in tap water) ([2]; water with 11,000,000 CFU cells, shear rate 1, 10, 100 s^-1, 22° C. (FIG. 3)): similar

degradation of the guar ([1]; 8 mL/L deactivator, 6 g/L guar): impeded
viscosity compared with Formulation 1 (no cellulase) ([1]; 8 mL/L deactivator, 6 g/L guar, shear rate 1, 10, 100 s^-1, 22° C. (FIG. 4)): similar
SMILES: COc1ccccc1O [guaiacol]

degradation of the guar ([1]; 8 mL/L salicylic acid, 3.6 g/L guar): impeded
viscosity compared with Formulation 1 (no cellulase) ([1]; 8 mL/L salicylic acid, 3.6 g/L guar, shear rate 1, 10, 100 s^-1, 22° C. (FIG. 4)): similar
SMILES: O=C(O)c1ccccc1O [salicylic acid]

degradation of the biomaterial ([1]; 0.96 g/L deactivator, 3.6 g/L guar, 22° C. (FIG. 7)): impeded
viscosity compared with Formulation 1 (no cellulase) ([1]; 0.96 g/L deactivator, 3.6 g/L guar, shear rate 1, 10, 100 s^-1, 22° C. (FIG. 7)): similar
SMILES: Nc1cccc2c(O)cccc12 [5-amino-1-naphthol]
